“Also recorded” adds a separate entry of the source.
Tests used:
Assay type in all cases: biochemical
[1] = system: cyclic nucleotide phosphodiesterase (the enzyme of the present invention) isolated from rat cerebral cortex; experiment: Effect of metal ions on the enzymatic activity
Method: (§1) The mixture is reacted at 30° C. Ten minutes after, the reaction mixture is put in a heat bath of 100° C. to terminate the reaction in 5 minutes. That is, the enzyme of the present invention is inactivated by heating at 100° C. A test tube charged with the reaction mixture is then ice-cooled. Next, 50 μg of snake venom, which contains 5'-nucleotidase, is added to and reacted with the reaction mixture at 30° C. for 10 minutes. […] 5'-AMP, which is then with 5'-nucleotidase in snake venom to form [8-^3 H] adenosine. After 4 ml of water is added to this reaction mixture, the mixture is adsorbed onto a column packed with cation exchange resin (AG50 WX4, Bio-Rad). After thoroughly rinsing, the reaction product [8-^3 H] adenosine is eluted with 1.5 ml 3N NH4 OH. The radioactivity of the eluted [8-^3 H] adenosine is measured to determine the enzymatic activity of the present invention.

[2] = biological target: cyclic nucleotide phosphodiesterase (the enzyme of the present invention) isolated from rat cerebral cortex; experiment: Effects of inhibitors on the enzymatic activity (two-step assay, cAMP hydrolysis); conditions: for IC50: enzymatic activity in the absence of inhibitor made 100%; for inhibition compared to PDEI, PDEIII or PDEIV: comparison with the known isozyme that the inhibitor acts on
Method: The activity of the enzyme of the present invention was determined by the two-step assay (Masuoka et al., Biochem. Biophys. Res. Commun., 169, 315-322, 1990).
Using various inhibitors which are known to inhibit the activity of PDEI, III or IV, the enzymatic activity of the enzyme of the present invention was measured by varying the concentration of these inhibitors.
as §1
The enzymatic activity of the enzyme of the present invention was measured by varying the concentrations of various inhibitors. […] In more detail, during the reaction with the enzyme of the present invention in assaying for the enzymatic activity described in Example, an inhibitor having various concentrations was further added to the reaction mixture to determine the enzymatic activity.

[3] = system: cyclic nucleotide phosphodiesterase (the enzyme of the present invention) isolated from rat cerebral cortex; experiment: Effect of activators (calcium-calmodulin, cGMP) on cAMP hydrolysis; conditions: 0.4 μg/ml calmodulin plus 0.2 mM calcium chloride versus 2 mM EGTA; or 10 μM cGMP
Method: Effects on the enzyme of the present invention were analyzed by adding 0.4 μg/ml calmodulin purified from bovine brain and 0.2 mM calcium chloride.
The mixture is reacted at 30° C. Ten minutes after, the reaction mixture is put in a heat bath of 100° C. to terminate the reaction in 5 minutes. That is, the enzyme of the present invention is inactivated by heating at 100° C. A test tube charged with the reaction mixture is then ice-cooled. Next, 50 μg of snake venom, which contains 5'-nucleotidase, is added to and reacted with the reaction mixture at 30° C. for 10 minutes. […] After 4 ml of water is added to this reaction mixture, the mixture is adsorbed onto a column packed with cation exchange resin (AG50 WX4, Bio-Rad). After thoroughly rinsing, the reaction product [8-^3 H] adenosine is eluted with 1.5 ml 3N NH4 OH. The radioactivity of the eluted [8-^3 H] adenosine is measured to determine the enzymatic activity of the present invention.

[4] = system: cyclic nucleotide phosphodiesterase (the enzyme of the present invention) isolated from rat cerebral cortex; experiment: Substrate specificity, Km by double reciprocal plots; conditions: substrate varied 0.06 μM to 100 μM

## [Ba+2] [Ba^2+]
[1]
  effect as metal cation / cofactor for the enzymatic reaction: no ability as a cofactor

## [Ca+2] [Ca^2+]
[1]
  effect as metal cation / cofactor for the enzymatic reaction: no ability as a cofactor

## [Co+2] [Co^2+]
[1]
  concentrations with inhibitory effect: above 100 μM
  concentrations with stimulatory effect: less than 100 μM

## [Cu+2] [Cu^2+]
[1]
  effect as metal cation / cofactor for the enzymatic reaction: no ability as a cofactor

## CC(C)Cn1c(=O)n(C)c(=O)c2[nH]cnc21 [IBMX, 3-isobutyl-1-methylxanthine]
[2]
  IC50: 26.5 ± 2.5 µM

## [Cl-].[Cl-].[Mg+2] [Magnesium, magnesium chloride]
[1]
  concentration at which the enzyme was activated: 1 µM
  concentration at which the maximum effect/activity was observed: over 5 mM
  effect as metal cation / cofactor for the enzymatic reaction: most efficient metal cation

## [Mn+2] [Manganese]
[1]
  effect as metal cation / cofactor for the enzymatic reaction: relatively stimulatory effect

## [Ni+2] [Ni^2+]
[1]
  effect as metal cation / cofactor for the enzymatic reaction: no ability as a cofactor

## CCCCOc1cc(CC2CNC(=O)N2)ccc1OC (centres unmarked) [Ro20-1724, 4-(3-buthoxy-4-methoxybenzyl)-2-imidazolidinone]
[2]
  inhibition compared to PDEI, PDEIII or PDEIV: less inhibited
  IC50: > 300 µM

## CC(=O)Nc1ccc(-c2c[nH]c(=O)cn2)cc1 [SK&F94120, 5-(4-acetamidophenyl)pyrazin-1H-one]
[2]
  inhibition compared to PDEI, PDEIII or PDEIV: not inhibited
  IC50: > 300 µM

## [Zn+2] [Zn^2+]
[1]
  effect as metal cation / cofactor for the enzymatic reaction: no ability as a cofactor

## Nc1nc2c(ncn2[C@@H]2O[C@@H]3COP(=O)(O)O[C@H]3[C@H]2O)c(=O)[nH]1 [cGMP, cyclic guanosine 3',5'-monophosphate]
[3]
  activation of the enzyme / sensitivity of the enzymatic activity: insensitive; also recorded: not activated
[4]
  Km: 1.78 µM

## O=C1CCc2cc(OCCCCc3nnnn3C3CCCCC3)ccc2N1 [cilostazol]
[2]
  inhibition compared to PDEI, PDEIII or PDEIV: not inhibited
  IC50: > 300 µM

## COC(=O)C1=C(C)NC(C)=C(C(=O)OCCN(C)Cc2ccccc2)C1c1cccc([N+](=O)[O-])c1 (centres unmarked) [nicardipine]
[2]
  inhibition compared to PDEI, PDEIII or PDEIV: less inhibited
  IC50: > 300 µM
[2]; unit inferred
  IC50: > 300 µM

## COc1ccc(Cc2nccc3cc(OC)c(OC)cc23)cc1OC [papaverine]
[2]; Dixon plots, varying cAMP and papaverine concentrations, read-out: inhibition constant (Ki value)
  Ki: 0.036 µM

## COc1ccc(C2CNC(=O)C2)cc1OC1CCCC1 (centres unmarked) [rolipram]
[2]
  inhibition compared to PDEI, PDEIII or PDEIV: less inhibited
  IC50: > 300 µM

— patent publication US5728563A, “Cyclic nucleotide phosphodiesterase and a method for production thereof” (Taisho Pharmaceutical Co., Ltd., priority 1993, dated 1998)
